How the values were obtained:
[1] = In vitro skin S9 metabolic stability assay (mouse); type: in vitro ADME; conditions: mouse, s9, pH 7.4
Method: (§1) Assay 6: In Vitro Skin S9 Metabolic Stability Assay
(§2) The objective of this assay was to assess the metabolic stability of compounds in human and mouse skin S9 sub-fraction. Human and mouse skin S9 sub-fractions obtained from Bioreclamation-IVT (Baltimore, Md.) were thawed on ice and diluted into 0.1M potassium phosphate buffer pH 7.4 to yield final incubation protein concentrations of 1.0 mg/mL. Test compounds (10 mM) were diluted into phosphate buffer to yield final incubation concentrations of 0.2 μM and 2.0 μM. Incubations were conducted at 37° C. temperature following addition of 1 mM NADPH and test aliquots were taken at time points 0, 5, 10, 20, 30 and 45 minutes. Each aliquot was crashed into water with 3% formic acid and 1 μM internal standard. The resulting samples were injected onto an LC-MS/MS system for analysis.
(§3) For each incubation, the peak area of the analytes in each t0 aliquot was set to 100% and the peak areas from subsequent time point aliquots were converted to percentage of parent compound remaining relative to t0. The percentage of parent compound remaining at each time point was converted to natural log scale and plotted versus time in minutes to determine a disappearance half-life.

[2] = target: T1, Tyk2 (Homo sapiens, UniProt P29597); test: Biochemical LanthaScreen Tyk2 kinase assay; conditions: Km ATP 10 μM; pKi from pIC50 by Cheng-Prusoff; read-out: Tyk 2 (pKi) (converted)
T1 construct: GST; purchased Life Technologies
Method: (§4) Assay 1: Biochemical JAK and Tyk2 Kinase Assays A panel of four LanthaScreen JAK biochemical assays (JAK1, 2, 3 and Tyk2) were carried in a common kinase reaction buffer (50 mM HEPES, pH 7.5, 0.01% Brij-35, 10 mM MgCl2, and 1 mM EGTA). Recombinant GST-tagged JAK enzymes and a GFP-tagged STAT1 peptide substrate were obtained from Life Technologies. Serially or discretely diluted compounds were pre-incubated with each of the four JAK enzymes and the substrate in white 384-well microplates (Corning) at ambient temperature for 1 h. ATP was subsequently added to initiate the kinase reactions in 10 μL total volume, with 1% DMSO. […] Kinase reactions were allowed to proceed for 1 hour at ambient temperature before a 10 μL preparation of EDTA (10 mM final concentration) and Tb-anti-pSTAT1 ([…]) antibody (Life Technologies, 2 nM final concentration) in TR-FRET dilution buffer (Life Technologies) was added. The plates were allowed to incubate at ambient temperature for 1 h before being read on the EnVision reader (Perkin Elmer). Emission ratio signals (520 nm/495 nm) were recorded and utilized to calculate the percent inhibition values based on DMSO and background controls. For dose-response analysis, percent inhibition data were plotted vs. compound concentrations, and IC50 values were determined from a 4-parameter robust fit model with the Prism software (GraphPad Software). Results were expressed as pIC50 (negative logarithm of IC50) and subsequently converted to pKi (negative logarithm of dissociation constant, Ki) using the Cheng-Prusoff equation.

[3] = target: T2, JAK2 (Homo sapiens, UniProt O60674); test: Biochemical LanthaScreen JAK2 kinase assay; conditions: Km ATP 3 μM; pKi from pIC50 by Cheng-Prusoff; read-out: JAK 2 (pKi) (converted)
T2 construct: GST; purchased Life Technologies
Method: as §4

[4] = In vitro skin S9 metabolic stability assay (human); type: in vitro ADME; conditions: human, s9, pH 7.4
Method: as §1, §2, §3

[5] = in vitro; type: in vitro ADME; conditions: human, microsomes, pH 7.4
Method: Assay 3: Human Liver Microsome Assay The objective of this assay was to assess the metabolic stability of test compounds in an in vitro human liver sub-fraction. Human liver microsomes obtained from Bioreclamation-IVT (Baltimore, Md.) were thawed on ice and diluted into 0.1M potassium phosphate buffer pH 7.4 to yield final incubation protein concentrations of 0.1 mg/mL. Test compounds (10 mM) were diluted into NADPH cofactor to yield final incubation concentrations of 0.1 μM test compound and 1 mM NADPH. Incubations were conducted at 37° C. temperature and test aliquots were taken at time points 0, 5, 8, 15, 30 and 45 minutes. […] The resulting samples were injected onto an LC-MS/MS system for analysis. For each incubation, the peak area of the analytes in each t0 aliquot was set to 100% and the peak areas from subsequent time point aliquots were converted to percentage of parent compound remaining relative to t0. The percentage of parent compound remaining was converted to natural log scale and plotted versus time in minutes. A linear regression analysis was performed for the initial decline of the parent disappearance profile and a formula for the best-fit line determined. The slope of the resultant line was normalized to protein concentration in mg/mL protein or number of cells/mL and CLint was calculated as follows for liver microsomes: CLint(μL·min^−1·mg^−1)=(Slope×1000)/[protein, mg/mL]

[6] = test system: Caco-2 cell monolayers; test: Caco-2 permeation assay; type: in vitro ADME; conditions: A to B, 5 μM compound, with Verapamil 25 μM, 120 minutes
Method: Assay 8: Caco-2 Permeation Assay The Caco-2 permeation assay was used as an indication of skin permeability. The assay measures the rate at which test compounds in solution permeate a cell monolayer (designed to mimic the tight junction of human small intestinal monolayers). CacoReady 24-well transwell plates were obtained from […], Calif.). The compounds were evaluated at a concentration of 5 μM from 10 mM DMSO stock solutions in duplicate (n=2). The passive permeability of the compounds tested was evaluated using Caco-2 cell monolayers along with Verapamil (25 μM) to inhibit P-gp transport proteins in the apical to basolateral (A-B) direction. The experiment was conducted in a 37° C., 5% CO2 incubator. Caco-2 culture media consisted of standard filtered DMEM, FCS 10%, L-Glutamine 1% and PenStrep 1%. Basal assay plate was prepared by adding 750 μL of transport buffer to A-B wells. A CacoReadyTM plate was prepared by removing the Caco-2 media from the apical wells and replacing with fresh transport media (200 μL repeated for a total of 3 washes). Blank media (200 μL) was then replaced with diluted compound for A-B wells. To begin the incubation, the basal plate was removed from the incubator and the apical section was added on top of it. […] The permeation coefficient (Kp, mean A to B+Verapamil […]) in cm/sec was calculated as dQ (flux)/(dt×Area×concentration).

T1 sequence (P29597 whole entry): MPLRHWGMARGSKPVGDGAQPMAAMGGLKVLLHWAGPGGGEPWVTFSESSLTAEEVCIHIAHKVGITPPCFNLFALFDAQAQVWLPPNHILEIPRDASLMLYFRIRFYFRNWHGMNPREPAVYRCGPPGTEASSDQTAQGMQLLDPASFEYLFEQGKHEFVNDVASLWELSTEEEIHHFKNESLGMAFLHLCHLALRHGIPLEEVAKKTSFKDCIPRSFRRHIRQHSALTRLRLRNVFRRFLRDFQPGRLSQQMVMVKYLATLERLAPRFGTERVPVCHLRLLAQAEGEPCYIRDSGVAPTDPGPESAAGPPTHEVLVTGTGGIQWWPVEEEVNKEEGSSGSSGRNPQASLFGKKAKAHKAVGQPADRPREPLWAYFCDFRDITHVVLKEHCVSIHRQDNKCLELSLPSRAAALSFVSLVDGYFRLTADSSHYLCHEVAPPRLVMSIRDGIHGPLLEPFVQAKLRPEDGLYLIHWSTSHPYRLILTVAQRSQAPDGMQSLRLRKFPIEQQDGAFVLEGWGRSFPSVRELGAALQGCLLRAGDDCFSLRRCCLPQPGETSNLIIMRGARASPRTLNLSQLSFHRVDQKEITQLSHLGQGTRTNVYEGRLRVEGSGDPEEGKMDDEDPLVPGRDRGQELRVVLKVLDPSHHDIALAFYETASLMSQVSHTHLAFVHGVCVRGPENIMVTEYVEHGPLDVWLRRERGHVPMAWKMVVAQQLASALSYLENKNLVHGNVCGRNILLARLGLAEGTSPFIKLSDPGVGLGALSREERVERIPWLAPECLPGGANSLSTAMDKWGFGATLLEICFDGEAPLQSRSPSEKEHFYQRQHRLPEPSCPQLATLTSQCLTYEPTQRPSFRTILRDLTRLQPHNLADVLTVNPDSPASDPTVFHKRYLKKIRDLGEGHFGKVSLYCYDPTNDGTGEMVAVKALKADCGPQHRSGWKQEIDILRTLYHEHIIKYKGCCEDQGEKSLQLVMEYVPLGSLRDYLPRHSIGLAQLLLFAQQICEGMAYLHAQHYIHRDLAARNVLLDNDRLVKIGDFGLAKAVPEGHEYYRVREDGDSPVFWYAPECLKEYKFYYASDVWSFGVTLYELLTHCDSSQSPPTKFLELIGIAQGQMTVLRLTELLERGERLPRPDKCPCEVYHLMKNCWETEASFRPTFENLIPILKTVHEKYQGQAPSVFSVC
T2 sequence (O60674 whole entry): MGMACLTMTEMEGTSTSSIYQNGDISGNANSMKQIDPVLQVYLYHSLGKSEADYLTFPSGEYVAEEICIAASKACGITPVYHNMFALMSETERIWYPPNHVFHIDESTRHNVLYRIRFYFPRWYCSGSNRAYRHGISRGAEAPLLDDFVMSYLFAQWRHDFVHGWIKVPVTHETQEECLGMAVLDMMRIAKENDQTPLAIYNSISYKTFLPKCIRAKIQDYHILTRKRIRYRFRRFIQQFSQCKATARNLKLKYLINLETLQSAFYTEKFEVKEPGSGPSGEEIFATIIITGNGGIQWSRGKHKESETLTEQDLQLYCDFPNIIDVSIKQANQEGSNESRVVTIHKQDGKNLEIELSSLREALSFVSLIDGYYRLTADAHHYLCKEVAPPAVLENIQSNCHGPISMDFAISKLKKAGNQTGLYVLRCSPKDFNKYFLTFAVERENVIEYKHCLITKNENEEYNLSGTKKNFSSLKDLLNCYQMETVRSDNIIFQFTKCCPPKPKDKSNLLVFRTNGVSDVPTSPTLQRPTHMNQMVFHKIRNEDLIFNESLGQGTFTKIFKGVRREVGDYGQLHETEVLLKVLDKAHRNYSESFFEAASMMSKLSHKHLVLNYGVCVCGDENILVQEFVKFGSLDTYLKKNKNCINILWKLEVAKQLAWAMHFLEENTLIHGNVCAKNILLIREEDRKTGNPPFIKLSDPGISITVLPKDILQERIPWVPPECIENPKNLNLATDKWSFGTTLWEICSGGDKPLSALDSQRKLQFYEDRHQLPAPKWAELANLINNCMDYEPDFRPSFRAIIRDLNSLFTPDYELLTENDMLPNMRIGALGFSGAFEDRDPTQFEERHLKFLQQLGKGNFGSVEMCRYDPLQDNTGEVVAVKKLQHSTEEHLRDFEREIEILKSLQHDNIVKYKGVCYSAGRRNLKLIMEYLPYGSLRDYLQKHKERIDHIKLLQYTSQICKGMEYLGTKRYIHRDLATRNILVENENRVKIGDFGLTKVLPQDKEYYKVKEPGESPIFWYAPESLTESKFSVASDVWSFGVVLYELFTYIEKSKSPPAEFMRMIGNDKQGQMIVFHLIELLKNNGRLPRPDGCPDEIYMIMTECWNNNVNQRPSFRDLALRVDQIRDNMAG

SMILES: CCS(=O)(=O)N1[C@@H]2CCC[C@H]1C[C@H](N(C)c1nc(COC(C)=O)c(F)c(Nc3cc(C)[nH]n3)n1)C2 [Compound 1, (2-(((1R,3s,5S)-9-(ethylsulfonyl)-9-azabicyclo[3.3.1]nonan-3-yl)(methyl)amino)-5-fluoro-6-((5-methyl-1H-pyrazol-3-yl)amino)pyrimidin-4-yl)methyl acetate]
- half-life at 0.2 μM [1]: < 15 min
- half-life at 2 μM [1]: 15 to 30 min
- Ki [2]: ≤ 0.1 nM
- Ki [3]: ≤ 0.1 nM
- half-life at 0.2 μM [4]: > 30 min
- half-life at 2 μM [4]: > 30 min

SMILES: CCC(=O)OCc1nc(N(C)[C@@H]2C[C@H]3CCC[C@@H](C2)N3S(=O)(=O)CC)nc(Nc2cc(C)[nH]n2)c1F [Compound 2, (2-(((1R,3s,5S)-9-(ethylsulfonyl)-9-azabicyclo[3.3.1]nonan-3-yl)(methyl)amino)-5-fluoro-6-((5-methyl-1H-pyrazol-3-yl)amino)pyrimidin-4-yl)methyl propionate]
- half-life at 0.2 μM [1]: 15 to 30 min
- half-life at 2 μM [1]: 15 to 30 min
- half-life at 0.2 μM [4]: > 30 min
- half-life at 2 μM [4]: > 30 min

SMILES: CCCC(=O)OCc1nc(N(C)[C@@H]2C[C@H]3CCC[C@@H](C2)N3S(=O)(=O)CC)nc(Nc2cc(C)[nH]n2)c1F [Compound 3, (2-(((1R,3s,5S)-9-(ethylsulfonyl)-9-azabicyclo[3.3.1]nonan-3-yl)(methyl)amino)-5-fluoro-6-((5-methyl-1H-pyrazol-3-yl)amino)pyrimidin-4-yl)methyl butyrate]
- half-life at 0.2 μM [1]: < 15 min
- half-life at 2 μM [1]: < 15 min
- half-life at 0.2 μM [4]: > 30 min
- half-life at 2 μM [4]: > 30 min

SMILES: CCCCC(=O)OCc1nc(N(C)[C@@H]2C[C@H]3CCC[C@@H](C2)N3S(=O)(=O)CC)nc(Nc2cc(C)[nH]n2)c1F [Compound 4, (2-(((1R,3s,5S)-9-(ethylsulfonyl)-9-azabicyclo[3.3.1]nonan-3-yl)(methyl)amino)-5-fluoro-6-((5-methyl-1H-pyrazol-3-yl)amino)pyrimidin-4-yl)methyl pentanoate]
- half-life at 0.2 μM [1]: < 15 min
- half-life at 2 μM [1]: < 15 min
- half-life at 0.2 μM [4]: 15 to 30 min
- half-life at 2 μM [4]: > 30 min

SMILES: CCS(=O)(=O)N1[C@@H]2CCC[C@H]1C[C@H](N(C)c1nc(COC(=O)OC3CCCCC3)c(F)c(Nc3cc(C)[nH]n3)n1)C2 [Compound 6, cyclohexyl ((2-(((1R,3s,5S)-9-(ethylsulfonyl)-9-azabicyclo[3.3.1]nonan-3-yl)(methyl)amino)-5-fluoro-6-((5-methyl-1H-pyrazol-3-yl)amino)pyrimidin-4-yl)methyl) carbonate]
- half-life at 0.2 μM [1]: < 15 min
- half-life at 2 μM [1]: < 15 min
- Ki [2]: 1 to 10 nM
- Ki [3]: 0.1 to 1 nM
- half-life at 0.2 μM [4]: > 30 min
- half-life at 2 μM [4]: > 30 min

SMILES: CCS(=O)(=O)N1[C@@H]2CCC[C@H]1C[C@H](N(C)c1nc(COC(=O)C3CCOCC3)c(F)c(Nc3cc(C)[nH]n3)n1)C2 [Compound 7, (2-(((1R,3s,5S)-9-(ethylsulfonyl)-9-azabicyclo[3.3.1]nonan-3-yl)(methyl)amino)-5-fluoro-6-((5-methyl-1H-pyrazol-3-yl)amino)pyrimidin-4-yl)methyl tetrahydro-2H-pyran-4-carboxylate]
- microsomal CLint at 0.1 μM [5]: > 2500 µL/min/mg
- Ki [2]: ≤ 0.1 nM
- Ki [3]: ≤ 0.1 nM

SMILES: CCS(=O)(=O)N1[C@@H]2CCC[C@H]1C[C@H](N(C)c1nc(COC(=O)OC3CCOCC3)c(F)c(Nc3cc(C)[nH]n3)n1)C2 [Compound 9, (2-(((1R,3s,5S)-9-(ethylsulfonyl)-9-azabicyclo[3.3.1]nonan-3-yl)(methyl)amino)-5-fluoro-6-((5-methyl-1H-pyrazol-3-yl)amino)pyrimidin-4-yl)methyl (tetrahydro-2H-pyran-4-yl) carbonate]
- microsomal CLint at 0.1 μM [5]: > 2500 µL/min/mg
- Ki [2]: 0.1 to 1 nM
- Ki [3]: ≤ 0.1 nM

SMILES: CCS(=O)(=O)N1[C@@H]2CCC[C@H]1C[C@H](N(C)c1nc(CO)c(F)c(Nc3cc(C)[nH]n3)n1)C2 [Compound M, (2-(((1R,3s,5S)-9-(ethylsulfonyl)-9-azabicyclo[3.3.1]nonan-3-yl)(methyl)amino)-5-fluoro-6-((5-methyl-1H-pyrazol-3-yl)amino)pyrimidin-4-yl)methanol]
- microsomal CLint at 0.1 μM [5]: 132 µL/min/mg
- Cacoverap Kp [6]: 42.3 ×10⁻⁶ cm/s
- Ki [2]: 0.1 to 1 nM
- Ki [3]: ≤ 0.1 nM

Source: US11845747B2, “Ester and carbonate pyrimidine compounds as JAK kinase inhibitors” (priority 2019, dated 2023)
